Measured values as given in US8927535B2, “Cyclopropyl-fused-1,3-thiazepines as BACE1 and/or BACE2 inhibitors” (Hoffman-La Roche Inc., priority 2011, dated 2015).

Molecular target: T1, BACE2 (Rattus norvegicus, UniProt Q6IE75)
T1 construct: endogenous cellular BACE2 in the Ins1e rat cell line; endogenous in cells; host or cells: INS-TMEM27 (INS1e-derived rat cell line with doxycycline-inducible full-length hTMEM27)
T1 sequence (Q6IE75 63-514): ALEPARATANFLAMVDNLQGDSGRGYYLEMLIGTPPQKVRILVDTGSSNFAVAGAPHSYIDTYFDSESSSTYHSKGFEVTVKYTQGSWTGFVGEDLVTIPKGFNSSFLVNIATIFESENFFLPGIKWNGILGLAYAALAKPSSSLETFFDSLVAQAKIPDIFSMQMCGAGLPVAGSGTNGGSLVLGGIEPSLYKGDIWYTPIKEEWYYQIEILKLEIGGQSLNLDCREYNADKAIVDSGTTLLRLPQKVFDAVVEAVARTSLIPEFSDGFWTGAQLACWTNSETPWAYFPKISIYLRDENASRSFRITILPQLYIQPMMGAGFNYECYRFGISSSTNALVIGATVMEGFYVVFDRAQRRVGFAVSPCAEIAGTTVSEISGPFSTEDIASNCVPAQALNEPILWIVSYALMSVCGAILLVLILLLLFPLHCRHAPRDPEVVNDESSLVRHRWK
Experiment: Assay for BACE inhibition by measuring cellular TMEM27 cleavage
Format: cell-based
Settings: INS-TMEM27 (INS1e-derived) cells, endogenous BACE2, shed human TMEM27 in medium by ELISA
Excerpt: Assay for BACE Inhibition by Measuring Cellular TMEM27 Cleavage:
The assay uses the principle of inhibition of human TMEM27 cleavage by endogenous cellular BACE2 in the Ins1e rat cell line and shedding from the cell surface into the culture medium, followed by detection in an ELISA assay. Inhibition of BACE2 prevents the cleavage and shedding in a dose-dependent manner.
The stable cell line “INS-TMEM27” represents an INS1e-derived cell line with inducible expression (using the TetOn system) of full-length hTMEM27 in a doxycycline-dependent manner.
INS-TMEM27 cells are seeded in 96-well plates. After 2 days in culture, BACE2 inhibitor is added in a range of concentrations as required by the assay and after a further two hours, doxycycline is added to a final concentration of 500 ng/ml. The cells are incubated for a further 46 hours and the supernatant harvested for detection of shed TMEM27.
An ELISA assay (using a pair of mouse anti-human-TMEM27 antibodies, raised against the extracellular domain of TMEM27) is used for detection of TMEM27 in the culture medium. An EC50 for BACE2 inhibition is calculated using the ELISA readout for each inhibitor concentration with standard curve-fitting software such as XLFit for the Excel spreadsheet program.

`NC1=N[C@@]2(c3cc(NC(=O)c4ccc(Cl)cn4)ccc3Cl)C[C@H]2CCS1` (racemic) [Example 4, N-(3-((1SR,7SR)-3-amino-4-thia-2-azabicyclo[5.1.0]oct-2-en-1-yl)-4-chlorophenyl)-5-chloropicolinamide] showed an IC50 of 690 nM.
